Experimental data: the NIST ThermoML archive (doi:10.1021/je100897y)
Several values for one entry are separate records, joined by “and”; a condition that tells them apart may be missing. Equal values may be shown once.

Legend:
[1] = 298.15 K; 101.33 kPa; Liquid
[2] = excess molar enthalpy (molar enthalpy of mixing); xn = mol fraction of the nth substance listed; conditions: 298.15 K, 101 kPa, Liquid, Flow calorimetry

C1CCOC1 [tetrahydrofuran]
Conditions	mass density [kg/m3]
[1]	882.078

CCCOCCC [dipropyl ether] + C=CCCCC
[2]
Conditions	excess molar enthalpy [kcal/mol]
x1 = 0.0529	0.00158
x1 = 0.1001	0.00289
x1 = 0.15	0.00394
x1 = 0.2001	0.0048
x1 = 0.25	0.00545
x1 = 0.3002	0.00595
x1 = 0.3499	0.00632
x1 = 0.4001	0.00654
x1 = 0.4501	0.00671
x1 = 0.5001	0.00669
x1 = 0.55	0.00661
x1 = 0.5998	0.00641
x1 = 0.6499	0.00609
x1 = 0.6996	0.0057
x1 = 0.75	0.00515
x1 = 0.8003	0.0045
x1 = 0.85	0.00368
x1 = 0.9	0.00271
x1 = 0.95	0.00146

CCCOCCC [dipropyl ether]
Conditions	mass density [kg/m3]
[1]	741.997

CCCOCCC [dipropyl ether] + C1CCOC1
[2]
Conditions	excess molar enthalpy
x1 = 0.05	0.0125 kcal/mol
x1 = 0.1	0.0232 kcal/mol
x1 = 0.1501	0.0325 kcal/mol
x1 = 0.2	0.0402 kcal/mol
x1 = 0.2498	0.0468 kcal/mol
x1 = 0.2998	0.0518 kcal/mol
x1 = 0.3503	0.0556 kcal/mol
x1 = 0.3998	0.058 kcal/mol
x1 = 0.45	0.0591 kcal/mol
x1 = 0.4998	0.0594 kcal/mol and 0.0593 kcal/mol
x1 = 0.5499	0.0585 kcal/mol
x1 = 0.5999	0.0565 kcal/mol
x1 = 0.6502	0.0535 kcal/mol
x1 = 0.7003	0.0493 kcal/mol
x1 = 0.7499	0.0441 kcal/mol
x1 = 0.7999	0.0381 kcal/mol
x1 = 0.85	0.0305 kcal/mol
x1 = 0.9	0.0216 kcal/mol
x1 = 0.95	0.0115 kcal/mol

C=CCCCC [hex-1-ene]
Conditions	mass density [kg/m3]
[1]	668.762

CCCOCCC [dipropyl ether] + CCCCOCCCC
[2]
Conditions	excess molar enthalpy [kcal/mol]
x1 = 0.05	0.000533
x1 = 0.1	0.00102
x1 = 0.15	0.0014
x1 = 0.2001	0.00175
x1 = 0.25	0.00205
x1 = 0.3	0.00229
x1 = 0.35	0.00246
x1 = 0.3998	0.00261
x1 = 0.4497	0.00275
x1 = 0.4998	0.00283
x1 = 0.5004	0.00283
x1 = 0.55	0.00284
x1 = 0.6001	0.00281
x1 = 0.65	0.00271
x1 = 0.6999	0.00253
x1 = 0.75	0.00228
x1 = 0.8	0.00196
x1 = 0.8503	0.00159
x1 = 0.9	0.00111
x1 = 0.95	0.000612
